pIC50: −log10 of the molar value.
Experiments:
Acetylcholinesterase = target: T1, Acetylcholinesterase (Mus musculus, UniProt P21836); experiment: Inhibition of AChE in Swiss Webster mouse cerebral homogenate using acetylthiocholine iodide as substrate preincubated for 10 mins followed substrate addition measured after 10 mins by Ellman's method
T1 sequence (P21836 whole entry): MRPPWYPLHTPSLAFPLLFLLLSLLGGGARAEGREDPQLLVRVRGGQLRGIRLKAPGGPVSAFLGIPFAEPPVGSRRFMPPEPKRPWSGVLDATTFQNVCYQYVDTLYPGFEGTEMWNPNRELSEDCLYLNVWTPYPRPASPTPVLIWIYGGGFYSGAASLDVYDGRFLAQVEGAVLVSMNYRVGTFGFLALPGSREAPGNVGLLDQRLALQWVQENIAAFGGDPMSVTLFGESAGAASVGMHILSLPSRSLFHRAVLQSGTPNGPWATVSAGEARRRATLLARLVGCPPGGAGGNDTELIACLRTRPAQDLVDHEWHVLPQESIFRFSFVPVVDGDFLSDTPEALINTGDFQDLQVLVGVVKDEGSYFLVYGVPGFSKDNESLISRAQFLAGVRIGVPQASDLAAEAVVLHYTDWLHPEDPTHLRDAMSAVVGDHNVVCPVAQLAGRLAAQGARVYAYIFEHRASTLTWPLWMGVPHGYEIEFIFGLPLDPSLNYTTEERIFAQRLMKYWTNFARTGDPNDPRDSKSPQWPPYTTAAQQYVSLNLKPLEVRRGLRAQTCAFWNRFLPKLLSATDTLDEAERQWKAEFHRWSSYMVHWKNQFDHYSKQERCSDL

Cholinesterase = Cholinesterase (Mus musculus, UniProt Q03311); experiment: Inhibition of BuChE in Swiss Webster mouse whole blood serum using butyrylthiocholine iodide as substrate preincubated for 10 mins followed substrate addition measured after 10 mins by Ellman's method
Sequence of Cholinesterase (Q03311 whole entry): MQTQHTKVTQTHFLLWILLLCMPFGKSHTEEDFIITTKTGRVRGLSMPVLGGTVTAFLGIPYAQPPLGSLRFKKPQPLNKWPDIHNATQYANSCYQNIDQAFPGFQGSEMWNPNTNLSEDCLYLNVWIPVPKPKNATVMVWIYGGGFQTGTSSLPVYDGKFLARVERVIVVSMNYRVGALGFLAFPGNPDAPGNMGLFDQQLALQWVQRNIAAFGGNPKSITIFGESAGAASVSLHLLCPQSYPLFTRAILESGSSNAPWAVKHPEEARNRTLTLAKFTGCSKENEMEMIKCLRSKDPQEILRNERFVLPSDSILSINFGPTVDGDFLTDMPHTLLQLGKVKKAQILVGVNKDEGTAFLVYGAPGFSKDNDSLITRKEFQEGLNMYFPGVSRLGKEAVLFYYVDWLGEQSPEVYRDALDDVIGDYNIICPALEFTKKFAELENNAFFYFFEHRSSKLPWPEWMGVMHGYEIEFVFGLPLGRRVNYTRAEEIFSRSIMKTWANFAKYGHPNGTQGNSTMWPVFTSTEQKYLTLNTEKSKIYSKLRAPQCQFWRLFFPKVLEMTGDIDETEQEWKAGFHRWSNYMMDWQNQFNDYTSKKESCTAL

SMILES | pIC50 (Acetylcholinesterase) | pIC50 (Cholinesterase)
CC1(C)O[C@H]2O[C@H](CNCCCCCCCCNc3c4c(nc5ccccc35)CCCC4)[C@H](O)[C@H]2O1 | 8.29 | 7.59
CC1(C)O[C@H]2O[C@H](CNCCCCCCNc3c4c(nc5ccccc35)CCCC4)[C@H](O)[C@H]2O1 | 8.06 | 7.56
CC1(C)O[C@H]2O[C@H](CNCCCCCCCCCNc3c4c(nc5ccccc35)CCCC4)[C@H](O)[C@H]2O1 | 7.99 | 7.51
CO[C@@H]1O[C@H](CNCCCCCCCCNc2c3c(nc4ccccc24)CCCC3)[C@H]2OC(C)(C)O[C@@H]12 | 7.05 | 7.43
CC1(C)O[C@H]2[C@@H](O1)[C@@H](CNCCCCCCCCNc1c3c(nc4ccccc14)CCCC3)O[C@@H]1OC(C)(C)O[C@@H]12 | 8.32 | 7.44
CO[C@@H]1O[C@H](CNCCCCCCCCCNc2c3c(nc4ccccc24)CCCC3)[C@H]2OC(C)(C)O[C@@H]12 | 7.18 | 7.19
CC1(C)O[C@H]2O[C@H](CNCCCCCCCCCCNc3c4c(nc5ccccc35)CCCC4)[C@H](O)[C@H]2O1 | 8.66 | 8.31
CC1(C)O[C@H]2[C@@H](O1)[C@@H](CNCCCCCCCCCNc1c3c(nc4ccccc14)CCCC3)O[C@@H]1OC(C)(C)O[C@@H]12 | 8.12 | 7.58
c1ccc2c(NCCCCCCCNc3c4c(nc5ccccc35)CCCC4)c3c(nc2c1)CCCC3 | 8.72 | 8.04
CC1(C)O[C@H]2O[C@H](CNCCCCCCCNc3c4c(nc5ccccc35)CCCC4)[C@H](O)[C@H]2O1 | 7.07 | 7.93
